The source of these data is patent publication US9399637B2, “Substituted heteroaryl compounds and methods of use” (Calitor Sciences, LLC, priority 2014, dated 2016).

This experiment addresses T1, Aurora-A (h) (Homo sapiens, UniProt O14965).
T1 construct: purchased Millipore UK Ltd (assays run there as a service)
T1 sequence (O14965 1-403): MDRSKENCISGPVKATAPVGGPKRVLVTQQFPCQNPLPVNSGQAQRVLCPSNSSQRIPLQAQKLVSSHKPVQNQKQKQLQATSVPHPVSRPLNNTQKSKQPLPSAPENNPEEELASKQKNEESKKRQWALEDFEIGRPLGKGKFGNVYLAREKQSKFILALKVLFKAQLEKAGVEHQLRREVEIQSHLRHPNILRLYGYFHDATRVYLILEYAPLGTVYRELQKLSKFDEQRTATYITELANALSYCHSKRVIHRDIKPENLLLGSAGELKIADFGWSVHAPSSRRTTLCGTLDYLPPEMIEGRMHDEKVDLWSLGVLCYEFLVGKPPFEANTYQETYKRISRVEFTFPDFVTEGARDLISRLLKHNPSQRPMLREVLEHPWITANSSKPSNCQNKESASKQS
The experiment can be described thus: Aurora-A kinase assay. Format: biochemical. The method, then:
Kinase assays can be performed by measurement of incorporation of γ-^33P ATP into immobilized myelin basic protein (MBP). High binding white 384 well plates (Greiner) are coated with MBP (Sigma #M-1891) by incubation of 60 μL/well of 20 μg/mL MBP in Tris-buffered saline (TBS; 50 mM Tris pH 8.0, 138 mM NaCl, 2.7 mM KCl) for 24 h at 4° C. Plates are washed 3× with 100 μL TBS. Kinase reactions are carried out in a total volume of 34 μL in kinase buffer (5 mM Hepes pH 7.6, 15 mM NaCl, 0.01% bovine gamma globulin (Sigma #I-5506), 10 mM MgCl2, 1 mM DTT, 0.02% TritonX-100). Compound dilutions are performed in DMSO and added to assay wells to a final DMSO concentration of 1%. Each data point is measured in duplicate, and at least two duplicate assays are performed for each individual compound determination. Enzyme is added to final concentrations of 10 nM or 20 nM, for example. A mixture of unlabeled ATP and γ-^33P ATP is added to start the reaction (2×10^6 cpm of γ-^33P ATP per well (3000 Ci/mmole) and 10 μM unlabeled ATP, typically. The reactions are carried out for 1 h at room temperature with shaking Plates are washed 7× with TBS, followed by the addition of 50 μL/well scintillation fluid (Wallac). Plates are read using a Wallac Trilux counter. This is only one format of such assays; various other formats are possible, as known to one skilled in the art. […]

For the molecule `Cc1c2ccc(Nc3ncc(Cl)c(NC4CC5CN(C(=O)CC#N)CC5C4)n3)cc2nn1C` (stereo not shown) [Ex. 4, 3-(5-((5-chloro-2-((2,3-dimethyl-2H-indazol-6-yl)amino)pyrimidin-4-yl)amino)hexahydrocyclopenta[c]pyrrol-2(1H)-yl)-3-oxopropanenitrile], the IC50 was 104 nM.
